Measurements: ChEMBL document CHEMBL2074315, “Role of human organic anion transporter 4 in the transport of ochratoxin A” (Biochim Biophys Acta, 2002)
pKi: −log10 of the molar value.

Columns and labels:
Type in all cases: functional, cell-based
[1] = target: T1, Solute carrier family 22 member 11 (Homo sapiens, UniProt Q9NSA0); assay: TP_TRANSPORTER: inhibition of Ochratoxin A uptake (OTA: 1 uM, Aspartame: 200 uM) in OAT4-expressing S2 cells; settings: s2, 200 µM
T1 sequence (Q9NSA0 whole entry): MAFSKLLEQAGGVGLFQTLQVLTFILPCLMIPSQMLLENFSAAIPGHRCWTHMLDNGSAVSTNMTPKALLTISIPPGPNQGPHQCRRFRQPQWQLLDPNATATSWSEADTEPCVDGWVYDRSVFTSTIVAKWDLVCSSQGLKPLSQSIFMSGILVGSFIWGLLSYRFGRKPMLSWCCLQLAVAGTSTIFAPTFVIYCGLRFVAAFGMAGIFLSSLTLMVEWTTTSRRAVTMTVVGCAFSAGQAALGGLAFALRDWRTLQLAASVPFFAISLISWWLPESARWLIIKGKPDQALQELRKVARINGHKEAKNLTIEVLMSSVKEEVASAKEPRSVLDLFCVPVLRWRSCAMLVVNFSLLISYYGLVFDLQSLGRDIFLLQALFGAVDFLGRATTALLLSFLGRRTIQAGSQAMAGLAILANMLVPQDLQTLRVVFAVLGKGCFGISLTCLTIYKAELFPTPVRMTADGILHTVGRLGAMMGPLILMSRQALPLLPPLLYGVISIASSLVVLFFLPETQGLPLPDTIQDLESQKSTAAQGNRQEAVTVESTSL

[2] = target: T2, OAT4 (SLC22A11, solute carrier family 22 member 11) (Homo sapiens, UniProt Q9NSA0); assay: TP_TRANSPORTER: uptake in OAT4-expressing S2 cells
T2 sequence (Q9NSA0 whole entry): T1 sequence (Q9NSA0 whole entry)

[3] = target: T1, Solute carrier family 22 member 11; assay: TP_TRANSPORTER: inhibition of Ochratoxin A uptake (OTA: 1 uM, PAH: 200 uM) in OAT4-expressing S2 cells; settings: mouse, s2, 200 µM
[4] = target: T1, Solute carrier family 22 member 11; assay: TP_TRANSPORTER: inhibition of Ochratoxin A uptake in OAT4-expressing S2 cells
[5] = target: T1, Solute carrier family 22 member 11; assay: TP_TRANSPORTER: inhibition of Ochratoxin A uptake (OTA: 1 uM, Indomethacin: 200 uM) in OAT4-expressing S2 cells; settings: mouse, s2, 200 µM
[6] = target: T1, Solute carrier family 22 member 11; assay: TP_TRANSPORTER: inhibition of Ochratoxin A uptake (OTA: 1 uM, PCG: 200 uM) in OAT4-expressing S2 cells; settings: s2, 200 µM

Compound: COC(=O)[C@H](Cc1ccccc1)NC(=O)[C@@H](N)CC(=O)O
- Activity [1]: inhibitor [(at a rough estimate) 80 % of control]

Compound: C[C@@H]1Cc2c(Cl)cc(C(=O)N[C@@H](Cc3ccccc3)C(=O)O)c(O)c2C(=O)O1 [3R14S-OCHRATOXIN A]
- Km [2]: 22.9 µM

Compound: Nc1ccc(C(=O)NCC(=O)O)cc1 [AMINOHIPPURIC ACID]
- Activity [3]: is not an inhibitor [-]

Compound: CC1=C2C(=CO[C@H](C)[C@H]2C)C(O)=C(C(=O)O)C1=O [CITRININ]
- pKi [4]: 3.44

Compound: COc1ccc2c(c1)c(CC(=O)O)c(C)n2C(=O)c1ccc(Cl)cc1 [INDOMETHACIN]
- Activity [5]: inhibitor [(at a rough estimate) 75 % of control]

Compound: CCCCCCCC(=O)O [OCTANOIC ACID]
- pKi [4]: 3.63

Compound: CC1(C)S[C@@H]2[C@H](NC(=O)Cc3ccccc3)C(=O)N2[C@H]1C(=O)O [PENICILLIN G]
- Activity [6]: inhibitor [(at a rough estimate) 20 % of control]

Compound: CN1C(C(=O)Nc2ccccn2)=C(O)c2ccccc2S1(=O)=O [PIROXICAM]
- pKi [4]: 3.97
